# Test results: patent US10857137B2, “Methods for the administration of certain VMAT2 inhibitors” (Neurocrine Biosciences, Inc., priority 2017, dated 2020)
# Entries after “also recorded” stand apart in the source; their conditions may differ.
# Assays:
# [1] = tested on: more than 80 targets including GPCRs, cell-surface monoamine transporters, and ion channels including HERG; assay: Multi-target activity screen (Cerep screen), whole panel; assay type: binding; settings: receptors
# human VMAT1 transporter = biological target: T1, human VMAT1 transporter (Homo sapiens, UniProt P54219); assay: Uptake in cells expressing VMAT1; assay type: cell-based; settings: test compounds at concentrations up to 10 μM
# T1 construct: expressed in transfected cells
# T1 sequence (P54219 1-525): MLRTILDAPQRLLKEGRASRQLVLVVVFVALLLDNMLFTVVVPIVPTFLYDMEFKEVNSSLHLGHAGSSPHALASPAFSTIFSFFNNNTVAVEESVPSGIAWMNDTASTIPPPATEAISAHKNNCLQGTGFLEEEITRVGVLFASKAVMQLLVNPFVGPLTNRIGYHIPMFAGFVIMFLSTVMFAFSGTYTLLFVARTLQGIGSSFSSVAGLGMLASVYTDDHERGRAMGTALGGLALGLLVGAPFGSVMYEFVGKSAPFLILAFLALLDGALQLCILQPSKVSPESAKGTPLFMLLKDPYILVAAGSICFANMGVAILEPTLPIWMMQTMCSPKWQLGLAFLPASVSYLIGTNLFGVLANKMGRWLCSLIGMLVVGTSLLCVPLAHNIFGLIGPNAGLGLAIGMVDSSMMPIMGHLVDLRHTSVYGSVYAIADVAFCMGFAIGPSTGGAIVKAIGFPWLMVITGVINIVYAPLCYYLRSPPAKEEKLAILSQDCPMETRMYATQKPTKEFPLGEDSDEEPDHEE
# [2] = Plasma concentrations of circulating metabolites of VBZ; assay type: in vivo; settings: metabolites formed from VBZ
# [3] = tested on: ptosis (adrenergic activation); assay: Ptosis, in vivo surrogate measure
# [4] = tested on: prolactin release (D2 dopamine receptor); assay: Serum prolactin, in vivo surrogate measure
# rat and human VMAT2 = assay: VMAT2 [3H]-DHTBZ binding, summary statements over rat and human tissues; settings: rat striatum and human platelet homogenates
# Procedure: The affinity of each compound was measured by inhibition of [^3H]-DHTBZ binding to rat forebrain membranes. […] The affinity of each compound was measured by inhibition of [^3H]-DHTBZ binding to either human platelets or rat striatal membranes.
# [5] = tested on: dopamine, serotonin and adrenergic receptor subtypes; assay: Detailed radioligand binding assays, monoamine receptors; settings: radioligand binding assays and broad panel screen
SMILES,"affinity for more than 80 binding sites, in words [1]","inhibition of uptake through VMAT1, in words (human VMAT1 transporter)","induction of ptosis, in words [3]","increase in serum prolactin levels, in words [4]",other results
COc1cc2c(cc1OC)[C@H]1C[C@@H](OC(=O)[C@@H](N)C(C)(C)O)[C@H](CC(C)C)CN1CC2 [NBI-136110],little to no affinity,no significant inhibitory activity; also recorded: no significant effect,,,"decline of plasma concentrations (half-lives), in words [2]: half-lives similar to VBZ"
"COc1cc2c(cc1OC)[C@H]1C[C@@H](O)[C@H](CC(C)C)CN1CC2 [R,R,R-DHTBZ, (2R,3R,11bR)-3-isobutyl-9,10-dimethoxy-1,3,4,6,7,11b-hexahydro-2H-pyrido[2,1-a]isoquinolin-2-ol]",little to no affinity,no significant inhibitory activity; also recorded: no significant effect,induced ptosis in an equivalent manner,induced a similar increase in serum prolactin levels as TBZ,"decline of plasma concentrations (half-lives), in words [2]: half-lives similar to VBZ; VMAT2 inhibition, in words (rat and human VMAT2): most potent inhibitor of VMAT2"
"COc1cc2c(cc1OC)[C@@H]1C[C@@H](O)[C@@H](CC(C)C)CN1CC2 [R,S,S-DHTBZ, reference compound]",,,,,"interaction with D1 and D2 receptors, in words [5]: interact with D1 and D2 receptors"
"COc1cc2c(cc1OC)[C@@H]1C[C@H](O)[C@@H](CC(C)C)CN1CC2 [S,S,S-DHTBZ, reference compound]",,,,,"interaction with D1 and D2 receptors, in words [5]: interact with D1 and D2 receptors"
"COc1cc2c(cc1OC)C1CC(=O)C(CC(C)C)CN1CC2 (stereo not shown) [TBZ, reference compound]",,no significant inhibitory activity; also recorded: no significant effect,induced ptosis in an equivalent manner,increase in serum prolactin levels,
"COc1cc2c(cc1OC)[C@H]1C[C@@H](OC(=O)[C@@H](N)C(C)C)[C@H](CC(C)C)CN1CC2 [Valbenazine, (S)-2-amino-3-methyl-butyric acid (2R,3R,11bR)-3-isobutyl-9,10-dimethoxy-1,3,4,6,7,11b-hexahydro-2H-pyrido[2,1-a]isoquinolin-2-yl ester]",little to no affinity,,induced ptosis in an equivalent manner,to a lesser extent,"inhibition of uptake through VMAT1, in words (human VMAT1 transporter; listed as VBZ): no significant inhibitory activity; also recorded: no significant effect"
"COC(=O)[C@H]1[C@H]2C[C@@H]3c4[nH]c5cc(OC)ccc5c4CCN3C[C@H]2C[C@@H](OC(=O)c2cc(OC)c(OC)c(OC)c2)[C@@H]1OC [reserpine, reference compound]",,substantially inhibited uptake through VMAT1,,,
